Results taken from patent US7153535B2, “Protein sweetener” (Wisconsin Alumni Research Foundation, priority 2002, dated 2006).

What was measured:
[1] = level of heat typically present during baking of foods; cited from earlier work
[2] = tested on: taste fibers predominantly responsive to sweeteners (S fibers) in the Chorda Tympani (CT) nerves; experiment: taste nerve fiber recordings during stimulation of the tongue; format: in vivo; conditions: fiber nerve recordings from rhesus monkey Chorda Tympani nerves, FIG. 4
Description: (§1) To test the sweetness potency of SEQ ID NOS. 3 and 5, we tested the perception of sweetness using a concentration of 100 ug/ml of the protein in water. One test panel consisted of monkeys. The other test panel was of humans. The response measured in the monkeys was level of activity of taste nerve fibers during the stimulation of the tongue with different compounds being tested. Humans were requested to score the sweetness sensations of the stimuli with a magnitude labeled scale in accordance with the techniques of B. Green et al., 21 Chemical Senses 323 (1996) (e.g. barely detectable; weak; moderate; strong; very strong; strongest imaginable).
We used rhesus monkey nerves as an animal model to test primate taste responses to sweet proteins. […] The triangle markings on FIG. 4 indicate exposure timing.

humans = experiment: human panel sweetness scoring on a labeled magnitude scale; format: in vivo; conditions: 100 ug/ml of the protein in water; monkey and human test panels
Description: as §1

Substance	stability to heat [1]	nerve response recording profile compared with sucrose [2]	sweetness relative to recombinantly produced wild type (des-pGlul) (humans) [times]
Brazzein: sweet protein; SEQ ID NO: 1 is natural Brazzein minus the beginning Glu, recombinantly produced wild type (DKCKKVYENYPVSKCQLANQCNYDCKLDKHARSGECFYDEKRNLQCICDYCEY; listed as Pentadiplandra brazzeana)	stable	more distinct	–
D29K: Brazzein variant in which the Asp at position 29 is replaced with Lys (DKCKKVYENYPVSKCQLANQCNYDCKLKKHARSGECFYDEKRNLQCICDYCEY)	–	–	3 to 4
D29N: Brazzein variant in which the Asp at position 29 is replaced with Asn (DKCKKVYENYPVSKCQLANQCNYDCKLNKHARSGECFYDEKRNLQCICDYCEY)	–	remarkably close to that of sucrose	3 to 4
Glu36Ala: comparative Brazzein variant with Glu at position 36 replaced by Ala (QDKCKKVYENYPVSKCQLANQCNYDCKLDKHARSGACFYDEKRNLQCICDYCEY; UniProt P56552 1-54, looked up, variant E36A)	–	more distinct	–
